Legend:
Experiment in all cases: KINOMEscan binding assay
[1] = target: T1, MLK1 (Homo sapiens, UniProt P80192); details: read-out: % Retention on Solid Support
T1 construct: purchased DiscoveRx KINOMEscan
In short: (§1)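 Competitive displacement at the ATP site served as the measure. Over 400 kinases were included, each exposed to i-CDK9 at 1 and at 10 µM.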

[2] = target: T2, MAP4K4 (Homo sapiens, UniProt O95819); details: read-out: % Retention on Solid Support
T2 construct: purchased DiscoveRx KINOMEscan
In short: as §1

[3] = target: T3, DDR2 (Homo sapiens, UniProt Q16832); details: read-out: % Retention on Solid Support
T3 construct: purchased DiscoveRx KINOMEscan
T3 sequence (Q16832 22-855): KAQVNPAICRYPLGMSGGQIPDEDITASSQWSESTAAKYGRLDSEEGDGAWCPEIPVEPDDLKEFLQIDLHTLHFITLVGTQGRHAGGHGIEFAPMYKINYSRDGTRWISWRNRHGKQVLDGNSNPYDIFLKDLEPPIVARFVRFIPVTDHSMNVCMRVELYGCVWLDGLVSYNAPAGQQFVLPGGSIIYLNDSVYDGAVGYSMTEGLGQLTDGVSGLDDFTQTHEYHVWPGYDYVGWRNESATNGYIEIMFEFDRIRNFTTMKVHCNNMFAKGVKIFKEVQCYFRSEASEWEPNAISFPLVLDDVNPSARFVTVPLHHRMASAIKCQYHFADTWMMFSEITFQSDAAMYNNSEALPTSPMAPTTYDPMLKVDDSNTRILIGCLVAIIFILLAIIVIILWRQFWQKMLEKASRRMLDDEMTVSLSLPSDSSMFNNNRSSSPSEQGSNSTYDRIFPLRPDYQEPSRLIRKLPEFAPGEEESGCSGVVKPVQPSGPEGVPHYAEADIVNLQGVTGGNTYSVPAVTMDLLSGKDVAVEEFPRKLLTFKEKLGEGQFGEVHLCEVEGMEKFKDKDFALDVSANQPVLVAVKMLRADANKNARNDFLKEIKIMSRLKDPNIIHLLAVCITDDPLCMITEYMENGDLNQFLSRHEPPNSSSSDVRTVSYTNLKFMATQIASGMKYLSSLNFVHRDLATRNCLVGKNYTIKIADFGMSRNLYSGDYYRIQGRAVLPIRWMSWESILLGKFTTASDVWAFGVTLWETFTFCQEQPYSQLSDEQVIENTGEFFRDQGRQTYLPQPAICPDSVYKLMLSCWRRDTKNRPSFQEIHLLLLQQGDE
In short: as §1

[4] = target: T4, AKT3 (Homo sapiens, UniProt Q9Y243); details: read-out: % Retention on Solid Support
T4 construct: purchased DiscoveRx KINOMEscan
In short: as §1

[5] = target: T5, STK16 (Homo sapiens, UniProt O75716); details: read-out: % Retention on Solid Support
T5 construct: purchased DiscoveRx KINOMEscan
T5 sequence (O75716 whole entry): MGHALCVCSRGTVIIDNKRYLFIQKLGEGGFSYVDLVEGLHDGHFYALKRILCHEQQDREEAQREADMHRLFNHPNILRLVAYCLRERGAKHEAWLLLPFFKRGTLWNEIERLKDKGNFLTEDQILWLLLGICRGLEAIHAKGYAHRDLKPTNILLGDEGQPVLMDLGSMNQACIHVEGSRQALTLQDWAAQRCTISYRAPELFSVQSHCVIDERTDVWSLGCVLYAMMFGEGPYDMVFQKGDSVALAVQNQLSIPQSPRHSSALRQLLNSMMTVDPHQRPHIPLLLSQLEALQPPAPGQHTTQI
In short: as §1

[6] = target: T6, SRPK2 (Homo sapiens, UniProt P78362); details: read-out: % Retention on Solid Support
T6 construct: purchased DiscoveRx KINOMEscan
T6 sequence (P78362 whole entry): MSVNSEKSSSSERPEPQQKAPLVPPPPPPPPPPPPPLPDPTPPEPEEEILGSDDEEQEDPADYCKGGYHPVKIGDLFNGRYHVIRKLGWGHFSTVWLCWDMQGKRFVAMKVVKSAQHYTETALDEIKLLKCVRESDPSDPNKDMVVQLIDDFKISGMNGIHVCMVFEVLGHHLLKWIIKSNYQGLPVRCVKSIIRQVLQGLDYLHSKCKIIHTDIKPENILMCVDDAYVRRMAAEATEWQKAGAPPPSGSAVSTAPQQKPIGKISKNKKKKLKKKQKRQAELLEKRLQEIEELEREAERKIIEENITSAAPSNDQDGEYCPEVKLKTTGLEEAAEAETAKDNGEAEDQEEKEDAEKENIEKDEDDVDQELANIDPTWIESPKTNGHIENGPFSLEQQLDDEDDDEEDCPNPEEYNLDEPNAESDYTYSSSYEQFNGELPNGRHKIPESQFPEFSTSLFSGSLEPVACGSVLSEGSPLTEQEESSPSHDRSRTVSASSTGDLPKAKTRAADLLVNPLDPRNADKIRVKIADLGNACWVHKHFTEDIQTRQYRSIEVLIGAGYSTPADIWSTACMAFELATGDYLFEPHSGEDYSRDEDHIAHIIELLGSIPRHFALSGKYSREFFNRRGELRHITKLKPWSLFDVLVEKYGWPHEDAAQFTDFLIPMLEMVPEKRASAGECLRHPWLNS
In short: as §1

[7] = target: T7, KIT(D816H) (Homo sapiens, UniProt P10721, D816H); details: 1 µM i-CDK9; read-out: % Retention on Solid Support
T7 construct: purchased DiscoveRx KINOMEscan
In short: as §1

[8] = target: T8, CAMK2G (Homo sapiens, UniProt Q13555); details: read-out: % Retention on Solid Support
T8 construct: purchased DiscoveRx KINOMEscan
T8 sequence (Q13555 whole entry): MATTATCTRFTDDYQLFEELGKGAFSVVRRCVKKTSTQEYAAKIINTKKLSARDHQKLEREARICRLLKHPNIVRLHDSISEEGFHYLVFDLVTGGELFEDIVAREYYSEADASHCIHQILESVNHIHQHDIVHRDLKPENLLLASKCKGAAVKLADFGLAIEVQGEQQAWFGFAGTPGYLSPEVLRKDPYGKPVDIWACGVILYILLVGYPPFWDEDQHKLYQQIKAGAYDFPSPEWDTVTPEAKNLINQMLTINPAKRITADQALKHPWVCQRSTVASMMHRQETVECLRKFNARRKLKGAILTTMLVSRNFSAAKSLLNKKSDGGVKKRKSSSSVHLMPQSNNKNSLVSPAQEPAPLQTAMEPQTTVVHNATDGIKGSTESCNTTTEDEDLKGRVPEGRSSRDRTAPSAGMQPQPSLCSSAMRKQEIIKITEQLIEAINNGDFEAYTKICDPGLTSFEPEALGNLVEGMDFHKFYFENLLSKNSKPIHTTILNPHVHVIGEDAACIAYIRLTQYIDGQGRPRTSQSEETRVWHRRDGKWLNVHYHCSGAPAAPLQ
In short: as §1

[9] = target: T9, FLT4 (Homo sapiens, UniProt P35916); details: read-out: % Retention on Solid Support
T9 construct: purchased DiscoveRx KINOMEscan
In short: as §1

[10] = target: T10, ERK3 (Homo sapiens, UniProt Q16659); details: read-out: % Retention on Solid Support
T10 construct: purchased DiscoveRx KINOMEscan
In short: as §1

[11] = target: T11, MYLK (Homo sapiens, UniProt Q15746); details: read-out: % Retention on Solid Support
T11 construct: purchased DiscoveRx KINOMEscan
In short: as §1

[12] = target: T12, TNK2 (Homo sapiens, UniProt Q07912); details: read-out: % Retention on Solid Support
T12 construct: purchased DiscoveRx KINOMEscan
T12 sequence (Q07912 whole entry): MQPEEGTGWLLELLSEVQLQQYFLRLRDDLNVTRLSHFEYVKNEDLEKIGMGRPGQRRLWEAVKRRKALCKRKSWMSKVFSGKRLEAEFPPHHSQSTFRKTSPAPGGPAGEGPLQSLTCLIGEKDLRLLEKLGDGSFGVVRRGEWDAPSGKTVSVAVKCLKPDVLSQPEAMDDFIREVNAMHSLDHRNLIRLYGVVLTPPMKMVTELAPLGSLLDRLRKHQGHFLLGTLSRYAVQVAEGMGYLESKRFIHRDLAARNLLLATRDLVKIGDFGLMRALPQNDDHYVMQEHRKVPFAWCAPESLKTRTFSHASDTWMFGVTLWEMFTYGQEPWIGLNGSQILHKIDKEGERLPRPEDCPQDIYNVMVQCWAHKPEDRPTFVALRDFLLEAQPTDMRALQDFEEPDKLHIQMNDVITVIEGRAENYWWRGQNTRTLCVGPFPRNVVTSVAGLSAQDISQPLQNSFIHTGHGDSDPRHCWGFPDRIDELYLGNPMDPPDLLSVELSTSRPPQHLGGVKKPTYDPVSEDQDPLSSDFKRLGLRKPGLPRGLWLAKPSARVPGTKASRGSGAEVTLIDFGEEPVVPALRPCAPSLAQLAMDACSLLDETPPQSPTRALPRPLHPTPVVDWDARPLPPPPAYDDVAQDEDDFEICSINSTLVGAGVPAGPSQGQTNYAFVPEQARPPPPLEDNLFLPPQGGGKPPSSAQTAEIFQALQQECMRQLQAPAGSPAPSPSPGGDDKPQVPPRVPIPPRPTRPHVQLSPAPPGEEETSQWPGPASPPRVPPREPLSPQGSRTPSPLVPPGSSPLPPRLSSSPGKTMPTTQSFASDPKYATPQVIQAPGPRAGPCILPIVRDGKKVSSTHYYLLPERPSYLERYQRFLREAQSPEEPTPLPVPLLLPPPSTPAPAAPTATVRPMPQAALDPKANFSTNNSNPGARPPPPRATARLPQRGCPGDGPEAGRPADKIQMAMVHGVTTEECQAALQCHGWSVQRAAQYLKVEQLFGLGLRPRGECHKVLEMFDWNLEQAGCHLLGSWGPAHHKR
In short: as §1

[13] = target: T13, NEK7 (Homo sapiens, UniProt Q8TDX7); details: read-out: % Retention on Solid Support
T13 construct: purchased DiscoveRx KINOMEscan
T13 sequence (Q8TDX7 whole entry): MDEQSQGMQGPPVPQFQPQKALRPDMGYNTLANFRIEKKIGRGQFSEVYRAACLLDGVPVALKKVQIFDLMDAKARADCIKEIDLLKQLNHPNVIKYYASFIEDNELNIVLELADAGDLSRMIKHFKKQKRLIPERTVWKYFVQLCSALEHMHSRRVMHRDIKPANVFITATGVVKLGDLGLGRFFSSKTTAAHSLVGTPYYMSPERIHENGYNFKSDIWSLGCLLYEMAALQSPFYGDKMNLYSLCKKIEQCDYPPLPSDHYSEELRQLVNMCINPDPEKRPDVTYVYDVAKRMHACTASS
In short: as §1

[14] = target: T14, DCAMKL2 (Homo sapiens, UniProt Q8N568); details: read-out: % Retention on Solid Support
T14 construct: purchased DiscoveRx KINOMEscan
In short: as §1

[15] = target: T15, SLK (Homo sapiens, UniProt Q9H2G2); details: read-out: % Retention on Solid Support
T15 construct: purchased DiscoveRx KINOMEscan
T15 sequence (Q9H2G2 whole entry): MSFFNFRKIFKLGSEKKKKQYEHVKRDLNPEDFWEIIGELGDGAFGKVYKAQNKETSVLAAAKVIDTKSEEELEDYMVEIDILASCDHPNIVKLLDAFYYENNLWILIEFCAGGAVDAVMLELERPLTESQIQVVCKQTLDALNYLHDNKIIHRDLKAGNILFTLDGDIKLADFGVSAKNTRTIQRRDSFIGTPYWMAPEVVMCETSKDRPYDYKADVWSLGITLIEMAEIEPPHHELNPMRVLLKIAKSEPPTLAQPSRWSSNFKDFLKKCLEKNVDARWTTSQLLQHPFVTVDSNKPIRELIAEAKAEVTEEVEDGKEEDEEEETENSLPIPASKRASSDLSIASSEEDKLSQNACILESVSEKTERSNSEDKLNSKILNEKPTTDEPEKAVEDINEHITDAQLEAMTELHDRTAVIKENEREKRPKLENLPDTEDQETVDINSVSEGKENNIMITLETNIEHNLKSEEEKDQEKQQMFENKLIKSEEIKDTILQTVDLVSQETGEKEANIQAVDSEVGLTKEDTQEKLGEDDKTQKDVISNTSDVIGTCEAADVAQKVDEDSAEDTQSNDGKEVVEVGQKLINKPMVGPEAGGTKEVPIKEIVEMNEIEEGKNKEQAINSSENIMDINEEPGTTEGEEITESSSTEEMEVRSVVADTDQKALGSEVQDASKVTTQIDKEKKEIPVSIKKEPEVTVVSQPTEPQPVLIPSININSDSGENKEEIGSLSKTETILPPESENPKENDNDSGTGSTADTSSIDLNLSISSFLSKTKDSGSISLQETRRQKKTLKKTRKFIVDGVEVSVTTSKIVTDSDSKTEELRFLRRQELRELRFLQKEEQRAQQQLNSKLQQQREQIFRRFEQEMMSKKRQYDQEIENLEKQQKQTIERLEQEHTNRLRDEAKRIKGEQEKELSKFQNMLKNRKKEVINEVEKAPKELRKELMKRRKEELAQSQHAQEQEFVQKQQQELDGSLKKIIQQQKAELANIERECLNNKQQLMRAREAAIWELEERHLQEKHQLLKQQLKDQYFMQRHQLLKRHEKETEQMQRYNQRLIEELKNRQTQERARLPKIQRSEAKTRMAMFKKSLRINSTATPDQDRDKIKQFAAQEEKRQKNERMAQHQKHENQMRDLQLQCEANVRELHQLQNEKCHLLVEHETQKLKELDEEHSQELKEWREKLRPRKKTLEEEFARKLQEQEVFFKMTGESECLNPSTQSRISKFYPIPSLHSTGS
In short: as §1

[16] = target: T16, TRKB (Homo sapiens, UniProt Q16620); details: read-out: % Retention on Solid Support
T16 construct: purchased DiscoveRx KINOMEscan
In short: as §1

[17] = target: T17, CSNK2A2 (Homo sapiens, UniProt P19784); details: read-out: % Retention on Solid Support
T17 construct: purchased DiscoveRx KINOMEscan
In short: as §1

[18] = target: T18, EPHB4 (Homo sapiens, UniProt P54760); details: read-out: % Retention on Solid Support
T18 construct: purchased DiscoveRx KINOMEscan
T18 sequence (P54760 16-987): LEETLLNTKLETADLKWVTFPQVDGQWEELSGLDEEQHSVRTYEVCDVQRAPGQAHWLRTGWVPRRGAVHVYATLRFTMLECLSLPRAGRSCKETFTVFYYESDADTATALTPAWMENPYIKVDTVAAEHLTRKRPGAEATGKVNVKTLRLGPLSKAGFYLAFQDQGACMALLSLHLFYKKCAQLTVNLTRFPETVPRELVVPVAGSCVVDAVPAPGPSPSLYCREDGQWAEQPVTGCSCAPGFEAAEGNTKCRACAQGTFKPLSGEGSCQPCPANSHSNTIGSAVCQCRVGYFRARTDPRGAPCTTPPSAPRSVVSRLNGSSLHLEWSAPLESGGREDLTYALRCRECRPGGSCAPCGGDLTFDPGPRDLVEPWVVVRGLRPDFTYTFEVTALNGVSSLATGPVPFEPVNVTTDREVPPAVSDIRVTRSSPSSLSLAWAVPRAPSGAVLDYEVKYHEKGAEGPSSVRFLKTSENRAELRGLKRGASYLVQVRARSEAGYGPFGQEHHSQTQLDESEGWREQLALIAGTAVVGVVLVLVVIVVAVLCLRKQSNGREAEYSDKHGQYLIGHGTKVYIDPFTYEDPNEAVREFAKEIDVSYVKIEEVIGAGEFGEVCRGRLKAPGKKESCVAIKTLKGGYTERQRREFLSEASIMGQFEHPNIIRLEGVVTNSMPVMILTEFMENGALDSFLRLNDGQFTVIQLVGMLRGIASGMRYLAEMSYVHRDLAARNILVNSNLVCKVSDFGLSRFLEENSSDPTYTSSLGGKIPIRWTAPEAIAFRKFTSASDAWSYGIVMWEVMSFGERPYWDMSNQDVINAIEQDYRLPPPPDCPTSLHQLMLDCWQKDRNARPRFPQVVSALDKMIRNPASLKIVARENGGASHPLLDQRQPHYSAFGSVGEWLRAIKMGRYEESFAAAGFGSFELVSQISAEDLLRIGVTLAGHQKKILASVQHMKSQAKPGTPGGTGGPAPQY
In short: as §1

[19] = target: T19, ABL1(H396P)-nonphosphorylated (Homo sapiens, UniProt P00519, H396P); details: read-out: % Retention on Solid Support
T19 construct: purchased DiscoveRx KINOMEscan
In short: as §1

Question: N[C@H]1CC[C@H](Nc2cc(-c3cccc(NCc4cccc(F)c4)n3)c(Cl)cn2)CC1 [i-CDK9, N2′-(trans-4-aminocyclohexyl)-5′-chloro-N6-(3-fluorobenzyl)-2,4′-bipyridine-2′,6-diamine] was tested. Which remaining binding at 1 µM ([1]; 1 µM i-CDK9) did it give?
Answer: 100%

Question: And the remaining binding at 10 µM ([1]; 10 µM i-CDK9)?
Answer: 100%

Question: And the remaining binding at 1 µM ([2]; 1 µM i-CDK9)?
Answer: 65%

Question: What about the remaining binding at 10 µM ([2]; 10 µM i-CDK9) of the same molecule?
Answer: 19%

Question: What about the remaining binding at 1 µM ([3]; 1 µM i-CDK9) of the same molecule?
Answer: 100%

Question: And the remaining binding at 10 µM ([3]; 10 µM i-CDK9)?
Answer: 92%

Question: And the remaining binding at 1 µM ([4]; 1 µM i-CDK9)?
Answer: 72%

Question: What about the remaining binding at 10 µM ([4]; 10 µM i-CDK9) of the same molecule?
Answer: 87%

Question: And the remaining binding at 1 µM ([5]; 1 µM i-CDK9)?
Answer: 95%

Question: And the remaining binding at 10 µM ([5]; 10 µM i-CDK9)?
Answer: 100%

Question: What about the remaining binding at 1 µM ([6]; 1 µM i-CDK9) of the same molecule?
Answer: 57%

Question: What about the remaining binding at 10 µM ([6]; 10 µM i-CDK9) of the same molecule?
Answer: 100%

Question: And the remaining binding at 1 µM [7]?
Answer: 100%

Question: And the remaining binding at 1 µM ([8]; 1 µM i-CDK9)?
Answer: 100%

Question: What about the remaining binding at 10 µM ([8]; 10 µM i-CDK9) of the same molecule?
Answer: 100%

Question: What about the remaining binding at 1 µM ([9]; 1 µM i-CDK9) of the same molecule?
Answer: 68%

Question: What about the remaining binding at 10 µM ([9]; 10 µM i-CDK9) of the same molecule?
Answer: 72%

Question: And the remaining binding at 1 µM ([10]; 1 µM i-CDK9)?
Answer: 94%

Question: And the remaining binding at 10 µM ([10]; 10 µM i-CDK9)?
Answer: 94%

Question: What about the remaining binding at 1 µM ([11]; 1 µM i-CDK9) of the same molecule?
Answer: 100%

Question: What about the remaining binding at 10 µM ([11]; 10 µM i-CDK9) of the same molecule?
Answer: 100%

Question: What about the remaining binding at 1 µM ([12]; 1 µM i-CDK9) of the same molecule?
Answer: 88%

Question: What about the remaining binding at 10 µM ([12]; 10 µM i-CDK9) of the same molecule?
Answer: 99%

Question: And the remaining binding at 1 µM ([13]; 1 µM i-CDK9)?
Answer: 100%

Question: What about the remaining binding at 10 µM ([13]; 10 µM i-CDK9) of the same molecule?
Answer: 100%

Question: What about the remaining binding at 1 µM ([14]; 1 µM i-CDK9) of the same molecule?
Answer: 100%

Question: What about the remaining binding at 10 µM ([14]; 10 µM i-CDK9) of the same molecule?
Answer: 65%

Question: What about the remaining binding at 1 µM ([15]; 1 µM i-CDK9) of the same molecule?
Answer: 100%

Question: What about the remaining binding at 10 µM ([15]; 10 µM i-CDK9) of the same molecule?
Answer: 100%

Question: And the remaining binding at 1 µM ([16]; 1 µM i-CDK9)?
Answer: 100%

Question: And the remaining binding at 10 µM ([16]; 10 µM i-CDK9)?
Answer: 100%

Question: What about the remaining binding at 1 µM ([17]; 1 µM i-CDK9) of the same molecule?
Answer: 100%

Question: And the remaining binding at 10 µM ([17]; 10 µM i-CDK9)?
Answer: 78%

Question: What about the remaining binding at 1 µM ([18]; 1 µM i-CDK9) of the same molecule?
Answer: 100%

Question: What about the remaining binding at 10 µM ([18]; 10 µM i-CDK9) of the same molecule?
Answer: 100%

Question: What about the remaining binding at 1 µM ([19]; 1 µM i-CDK9) of the same molecule?
Answer: 45%

Question: And the remaining binding at 10 µM ([19]; 10 µM i-CDK9)?
Answer: 97%

From article PMC4490784, “Compensatory induction of MYC expression by sustained CDK9 inhibition via a BRD4-dependent mechanism” (eLife, 2015)
